We go through two compounds from patent publication US9987368B2, “Pharmaceutical composition comprising polypeptide” (SANTEN PHARMACEUTICAL CO., LTD., priority 2015, dated 2018).

Data set [1] can be described thus: Depot formation evaluation test (1): gelatinizers in DMSO/water. The following applies: solution of DMSO/water at the volume ratio (9:1). Type of data set: physicochemical. The protocol:
Depot (deposited mass) formations of various kinds of gelatinizers were examined.
Compositions 1 to 6 were prepared by blending each of various kinds of gelatinizers to a solvent of DMSO/water (volume ratio of 9:1) such that the gelatinizer is contained at 0.1% (w/v) (0.1% by mass of the gelatinizer is contained per 100 mL of the solution of DMSO/water). Then, calcium chloride dihydrate and magnesium chloride hexahydrate were dissolved in Dulbecco's phosphate buffered saline (−) (Product No. D-5652 manufactured by Sigma-Aldrich) to prepare Dulbecco's phosphate buffered saline (+). 0.005 mL of each of the compositions was added to 1 mL of the Dulbecco's phosphate buffered saline (+), and the formation of a depot was visually checked. The formation of a depot was evaluated in such a way that the depot is determined as formed if a mass formed of the composition deposited is observed.

The nature of data set [2]: Depot formation evaluation test (2): solvents of the polypeptide A. Type of data set: physicochemical. The protocol:
Solvents of the polypeptide A were examined.
Compositions 2 to 6 and Comparative Examples 6 and 7 were prepared by adding 0.01 mL of an aqueous solution of the polypeptide A at 1% (w/v) (containing 1% by mass of the polypeptide A per 100 mL of water) to 0.09 mL of each of various solvents, followed by stirring. 0.005 mL of each of the compositions was administered to 1 mL of the Dulbecco's phosphate buffered saline (+), and the formation of a depot was visually checked.

The nature of data set [3]: Dissolution performance evaluation test. The following applies: for Property: visually checked. Type of data set: physicochemical. As for the experimental part:
Drug dissolving abilities of various solutions were examined.
The compound represented by the above formula (2) (2-[[[2-[(hydroxyacetyl)amino]-4-pyridinyl]methyl]thio]-N-[4-(trifluoromethoxy)phenyl]-3-pyridinecarboxamide, hereinafter also referred to as the drug A; prepared in accordance with the method described in the specification of US Patent Application Publication No. 2007/0149574) was added to each solvent (total 1 mL) out of various solvents of DMSO (GAYLORD), PEG 400 (Nacalai Tesque), and water, and was stirred at room temperature (25° C.) overnight (for 8 hours). Then, the properties of the resultant solvents were visually checked.

For data set [4], the system named is VEGF-induced HUVEC proliferation. As to conditions: US 2007/0149574; cited from earlier work.
The subject of data set [5] is cancer models in mice. As to conditions: US 2007/0149574; cited from earlier work.
In data set [6] the test system is adjuvant arthritis models in rats. As to conditions: US 2007/0149574; cited from earlier work.
Data set [7] relates to choroidal neovascularization models in rats. The following applies: US 2007/0149574; cited from earlier work.

Consider “Ac-(Arg-Ala-Asp-Ala)4-NH2 [polypeptide A]”, for which the “Depot formation” value in data set [1] is given as “formed a depot”; in data set [2] (DMSO, PEG 200, PEG 400, glycofurol and N-methylpyrrolidone used as the solvents), “formed a depot”; in data set [2] (ethanol and N,N-dimethylacetamide used as the solvents), “did not form a depot”.

`O=C(CO)Nc1cc(CSc2ncccc2C(=O)Nc2ccc(OC(F)(F)F)cc2)ccn1` [Drug A, 2-[[[2-[(hydroxyacetyl)amino]-4-pyridinyl]methyl]thio]-N-[4-(trifluoromethoxy)phenyl]-3-pyridinecarboxamide]: the Property entry was “Solution” in data set [3] (Test 1: Drug A 20 mg in DMSO 0.9 mL + water 0.1 mL, stirred at room temperature (25° C.) overnight); “Solution” in data set [3] (Test 2: Drug A 60 mg in DMSO 0.9 mL + water 0.1 mL, stirred at 25° C. overnight); “Suspension” in data set [3] (Test 3: Drug A 60 mg in water 1 mL, stirred at 25° C. overnight); “Solution” in data set [3] (Test 4: Drug A 25 mg in PEG 400 1 mL, stirred at 25° C. overnight); “Solution” in data set [3] (Test 5: Drug A 25 mg in PEG 400 0.9 mL + water 0.1 mL, stirred at 25° C. overnight); “Solution” in data set [3] (Test 6: Drug A 25 mg in PEG 400 0.8 mL + water 0.2 mL, stirred at 25° C. overnight). The Property result in data set [3] (Test 7: Drug A 25 mg in water 1 mL, stirred at 25° C. overnight) is given as “Suspension”. Further, the “Dissolution of the drug in solution containing DMSO or PEG 400” value in data set [3] (solution containing DMSO or PEG 400) was “can dissolve the drug”. In addition, in data set [3] (water), the “Dissolution of the drug in water” value is given as “cannot be dissolved in water”. In data set [4], the “cell proliferation inhibitory action” value is on record as “demonstrated a cell proliferation inhibitory action”. For the same compound, the “tumor growth inhibitory action” value in data set [5] was “demonstrated a tumor growth inhibitory action”. Further, the “paw edema inhibitory action” value in data set [6] is on record as “demonstrated a paw edema inhibitory action”. For the same compound, the “choroidal neovascularization inhibitory action” value in data set [7] is “demonstrated a choroidal neovascularization inhibitory action”.
